# Data published in PubChem BioAssay (NCI).
#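 Values below derive from 48-hour exposures of cells grown in 96-well plates, with endpoints linearly interpolated between the two concentrations bracketing the appropriate inhibition level. GI50: concentration for 50% inhibition of growth. At the TGI there is no net growth.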
# Key:
# Assay in all cases: DTP human tumour cell line panel, 48 h
# 786-0 renal = system: 786-0 renal
# A498 renal = system: A498 renal
# A549 NSCLC = system: A549 NSCLC
# ACHN renal = system: ACHN renal
# BT-549 breast = system: BT-549 breast
# CAKI-1 renal = system: CAKI-1 renal
# CCRF-CEM leukemia = system: CCRF-CEM leukemia
# COLO 205 colon = system: COLO 205 colon
# DU-145 prostate = system: DU-145 prostate
# EKVX NSCLC = system: EKVX NSCLC
# HCC-2998 colon = system: HCC-2998 colon
# HCT-116 colon = system: HCT-116 colon
# HCT-15 colon = system: HCT-15 colon
# HL-60(TB) leukemia = system: HL-60(TB) leukemia
# HOP-62 NSCLC = system: HOP-62 NSCLC
# HOP-92 NSCLC = system: HOP-92 NSCLC
# HS 578T breast = system: HS 578T breast
# HT29 colon = system: HT29 colon
# IGROV1 ovarian = system: IGROV1 ovarian
# K-562 leukemia = system: K-562 leukemia
# KM12 colon = system: KM12 colon
# LOX IMVI melanoma = system: LOX IMVI melanoma
# M14 melanoma = system: M14 melanoma
# MALME-3M melanoma = system: MALME-3M melanoma
# MCF7 breast = system: MCF7 breast
# MDA-MB-231 breast = system: MDA-MB-231 breast
# MDA-MB-435 = system: MDA-MB-435
# MDA-MB-468 breast = system: MDA-MB-468 breast
# MOLT-4 leukemia = system: MOLT-4 leukemia
# NCI-H226 lung = system: NCI-H226 lung
# NCI-H23 lung = system: NCI-H23 lung
# NCI-H460 lung = system: NCI-H460 lung
# NCI-H522 lung = system: NCI-H522 lung
# NCI/ADR-RES ovarian = system: NCI/ADR-RES ovarian
# OVCAR-3 ovarian = system: OVCAR-3 ovarian
# OVCAR-4 ovarian = system: OVCAR-4 ovarian
# OVCAR-5 ovarian = system: OVCAR-5 ovarian
# OVCAR-8 ovarian = system: OVCAR-8 ovarian
# PC-3 prostate = system: PC-3 prostate
# RPMI-8226 leukemia = system: RPMI-8226 leukemia
# RXF 393 renal = system: RXF 393 renal
# SF-268 CNS = system: SF-268 CNS
# SF-295 CNS = system: SF-295 CNS
# SF-539 CNS = system: SF-539 CNS
# SK-MEL-2 melanoma = system: SK-MEL-2 melanoma
# SK-MEL-28 melanoma = system: SK-MEL-28 melanoma
# SK-MEL-5 melanoma = system: SK-MEL-5 melanoma
# SK-OV-3 ovarian = system: SK-OV-3 ovarian
# SN12C renal = system: SN12C renal
# SNB-19 CNS = system: SNB-19 CNS
# SNB-75 CNS = system: SNB-75 CNS
# SW-620 colon = system: SW-620 colon
# T-47D breast = system: T-47D breast
# TK-10 renal = system: TK-10 renal
# U251 CNS = system: U251 CNS
# UACC-257 melanoma = system: UACC-257 melanoma
# UACC-62 melanoma = system: UACC-62 melanoma
# UO-31 renal = system: UO-31 renal
smiles,measurement,setting,value
O=C(N=Nc1c(O)[nH]c2ccc(Br)cc12)c1ccc2nc(-c3ccccc3)[nH]c2c1,GI50,786-0 renal,2.01 µM
same,TGI,786-0 renal,3.91 µM
same,GI50,A498 renal,3.55 µM
same,TGI,A498 renal,17.9 µM
same,GI50,A549 NSCLC,2.22 µM
same,TGI,A549 NSCLC,7.41 µM
same,GI50,ACHN renal,8.96 µM
same,TGI,ACHN renal,> 100 µM
same,GI50,BT-549 breast,3.55 µM
same,TGI,BT-549 breast,26.5 µM
same,GI50,CAKI-1 renal,> 100 µM
same,TGI,CAKI-1 renal,> 100 µM
same,GI50,CCRF-CEM leukemia,3.18 µM
same,TGI,CCRF-CEM leukemia,> 100 µM
same,GI50,COLO 205 colon,2.53 µM
same,TGI,COLO 205 colon,6.95 µM
same,GI50,DU-145 prostate,1.95 µM
same,TGI,DU-145 prostate,4.06 µM
same,GI50,EKVX NSCLC,3 µM
same,TGI,EKVX NSCLC,11.2 µM
same,GI50,HCC-2998 colon,1.48 µM
same,TGI,HCC-2998 colon,3.11 µM
same,GI50,HCT-116 colon,3.24 µM
same,TGI,HCT-116 colon,12.8 µM
same,GI50,HCT-15 colon,18.6 µM
same,TGI,HCT-15 colon,> 100 µM
same,GI50,HL-60(TB) leukemia,2.54 µM
same,TGI,HL-60(TB) leukemia,6.73 µM
same,GI50,HOP-62 NSCLC,1.69 µM
same,TGI,HOP-62 NSCLC,3.36 µM
same,GI50,HOP-92 NSCLC,2.17 µM
same,TGI,HOP-92 NSCLC,6.63 µM
same,GI50,HS 578T breast,1.86 µM
same,TGI,HS 578T breast,4.83 µM
same,GI50,HT29 colon,2.66 µM
same,TGI,HT29 colon,8.75 µM
same,GI50,IGROV1 ovarian,3.03 µM
same,TGI,IGROV1 ovarian,13.2 µM
same,GI50,K-562 leukemia,1.29 µM
same,TGI,K-562 leukemia,6.99 µM
same,GI50,KM12 colon,22 µM
same,TGI,KM12 colon,> 100 µM
same,GI50,LOX IMVI melanoma,1.23 µM
same,TGI,LOX IMVI melanoma,2.51 µM
same,GI50,M14 melanoma,1.95 µM
same,TGI,M14 melanoma,4.14 µM
same,GI50,MALME-3M melanoma,1.62 µM
same,TGI,MALME-3M melanoma,3.35 µM
same,GI50,MCF7 breast,1.7 µM
same,TGI,MCF7 breast,5.09 µM
same,GI50,MDA-MB-231 breast,1.69 µM
same,TGI,MDA-MB-231 breast,3.18 µM
same,GI50,MDA-MB-435,2.32 µM
same,TGI,MDA-MB-435,4.93 µM
same,GI50,MDA-MB-468 breast,1.61 µM
same,TGI,MDA-MB-468 breast,3.06 µM
same,GI50,MOLT-4 leukemia,1.34 µM
same,TGI,MOLT-4 leukemia,4.01 µM
same,GI50,NCI-H226 lung,2.03 µM
same,TGI,NCI-H226 lung,5.43 µM
same,GI50,NCI-H23 lung,1.53 µM
same,TGI,NCI-H23 lung,3.65 µM
same,GI50,NCI-H460 lung,1.79 µM
same,TGI,NCI-H460 lung,3.53 µM
same,GI50,NCI-H522 lung,1.38 µM
same,TGI,NCI-H522 lung,3.1 µM
same,GI50,NCI/ADR-RES ovarian,> 100 µM
same,TGI,NCI/ADR-RES ovarian,> 100 µM
same,GI50,OVCAR-3 ovarian,2.14 µM
same,TGI,OVCAR-3 ovarian,4.26 µM
same,GI50,OVCAR-4 ovarian,1.99 µM
same,TGI,OVCAR-4 ovarian,4.26 µM
same,GI50,OVCAR-5 ovarian,3.72 µM
same,TGI,OVCAR-5 ovarian,27.1 µM
same,GI50,OVCAR-8 ovarian,1.53 µM
same,TGI,OVCAR-8 ovarian,3.76 µM
same,GI50,PC-3 prostate,2.92 µM
same,TGI,PC-3 prostate,> 100 µM
same,GI50,RPMI-8226 leukemia,17.2 µM
same,TGI,RPMI-8226 leukemia,> 100 µM
same,GI50,RXF 393 renal,2.57 µM
same,TGI,RXF 393 renal,6.6 µM
same,GI50,SF-268 CNS,2 µM
same,TGI,SF-268 CNS,4.6 µM
same,GI50,SF-295 CNS,1.86 µM
same,TGI,SF-295 CNS,3.78 µM
same,GI50,SF-539 CNS,1.77 µM
same,TGI,SF-539 CNS,3.43 µM
same,GI50,SK-MEL-2 melanoma,2.17 µM
same,TGI,SK-MEL-2 melanoma,4.78 µM
same,GI50,SK-MEL-28 melanoma,1.79 µM
same,TGI,SK-MEL-28 melanoma,3.42 µM
same,GI50,SK-MEL-5 melanoma,3.38 µM
same,TGI,SK-MEL-5 melanoma,12.1 µM
same,GI50,SK-OV-3 ovarian,1.97 µM
same,TGI,SK-OV-3 ovarian,4.29 µM
same,GI50,SN12C renal,1.86 µM
same,TGI,SN12C renal,4.11 µM
same,GI50,SNB-19 CNS,1.79 µM
same,TGI,SNB-19 CNS,4.35 µM
same,GI50,SNB-75 CNS,2.11 µM
same,TGI,SNB-75 CNS,5.62 µM
same,GI50,SW-620 colon,1.82 µM
same,TGI,SW-620 colon,3.61 µM
same,GI50,T-47D breast,1.07 µM
same,TGI,T-47D breast,2.52 µM
same,GI50,TK-10 renal,3.61 µM
same,TGI,TK-10 renal,70.1 µM
same,GI50,U251 CNS,0.418 µM
same,TGI,U251 CNS,1.59 µM
same,GI50,UACC-257 melanoma,3.27 µM
same,TGI,UACC-257 melanoma,21.7 µM
same,GI50,UACC-62 melanoma,1.75 µM
same,TGI,UACC-62 melanoma,3.37 µM
same,GI50,UO-31 renal,> 100 µM
same,TGI,UO-31 renal,> 100 µM
